What all share (format): cell-based
The target in assay [1] is T1, BRD4 (Homo sapiens, UniProt O60885). The experiment in a line: BRD4 protein degradation by western blotting in MDA-MB-231 cells (24 h treatment). Also noted: To evaluate the resolution of PROTAC for BRD4 expressed in cells; endogenous in cells; host or cells: MDA-MB-231. (Immunoblotting shows a protein as a band on a membrane.)
Assay [2] concerns the target T2, BRD4-NUT (Homo sapiens, UniProt O60885+Q86Y26).
T2 construct: endogenous in cells; host or cells: RPMI2650
The experiment in a line: BRD4-NUT protein degradation by western blotting in RPMI2650 cells (24 h treatment). Conditions: read-out: BRD4-NUT (DC50), RPMI2650. The essentials: (§1)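 Cells seeded at 5 X 10^5 cells/well and exposed to serially diluted compound for 24 hours. Western blot bands were quantified by densitometry, normalized to β-actin or GAPDH and expressed as % of 0.1% DMSO vehicle. DC50 is the concentration giving 50% loss of protein.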

The subject of assay [3] is RPMI2650. Put plainly: Cancer cell antiproliferative activity / cell viability in RPMI2650 cells (72 h treatment). Conditions: Homo sapiens, RPMI-2650, RPMI2650, read-out: BRD4 (IC50). The essentials:
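RPMI2650 human cells were grown under specific culture conditions and seeded at 5,000 cells/well in 96-well plates. Test compounds, dissolved in DMSO as 10 mM or 50 mM stock solutions and serially diluted, were applied at various concentrations for 72 hours. IC50, the concentration giving 50% cytostasis, was averaged over three independent measurements.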

The target of assay [4] is T1, BRD4. Put plainly: BRD4 protein degradation by western blotting in RPMI2650 cells (24 h treatment). Also noted: To evaluate the resolution of PROTAC for BRD4 expressed in cells; endogenous in cells; host or cells: RPMI2650. Conditions: read-out: BR04 (DC50), RPMI2650. The essentials: as §1
Assay [5] deals with MDA-MB-231. The experiment in a line: Cancer cell antiproliferative activity / cell viability in MDA-MB-231 cells (72 h treatment). Conditions: Homo sapiens, read-out: BRD4 (IC50). The protocol:
(§2) The human breast cancer cell line [MDA-MB-231] was cultured in RPMI medium with the addition of 10% fetal bovine serum, penicillin [100U/ml], and streptomycin [[…]]. The synthesized compounds were prepared with a 10 mM or 50 mM raw material solution dissolved in DMSO [dimethyl sulfoxide], and were diluted sequentially and treated. [RPMI2650] and [SNU2972] were cultivated under specific conditions.
(§3) To observe cell growth inhibition, cells were dispensed in a concentration of 5,000 cells/well in a 96-well plate, and samples prepared at various concentrations were treated for 72 hours. The IC50 value (the concentration of the compound achieving 50% cytostaticism) is the average value of the results of three independent measurements.

Assay [6] deals with SNU2972. The experiment in a line: Cancer cell antiproliferative activity / cell viability in SNU2972 cells (72 h treatment). Conditions: read-out: BRD4 (IC50). The protocol: as §2, §3

Usually DC50 stands for the midpoint of the concentration-degradation curve. One may read the IC50 as the concentration that inhibits the measured activity by half. On to `Cc1sc2c(c1C)C(c1ccc(Cl)cc1)=N[C@@H](CC(=O)N1CCC(CN3CCN(c4cc5c(C)nn(C6CCC(=O)NC6=O)c(=O)c5cc4F)CC3)CC1)c1nnc(C)n1-2` (stereo partly drawn) [ICT-0000953, 3-(6-(4-((1-(2-((S)-4-(4-chlorophenyl)-2,3,9-trimethyl-6H-thieno[3,2-f][1,2,4]triazolo[4,3-a][1,4]diazepine-6-il)acetyl)piperidine-4-il)methyl)piperazine-1-il)-7-fluoro-4-methyl-1-oxopthalazine-2(1H)-yl)piperidine-2,6-dione], for which the DC50 in assay [1], in assay [2] and in assay [4] was less than 0.1 µM in each case. In addition, the IC50 in assay [3], in assay [5] and in assay [6] was less than 0.1 µM in each case.
As for `Cc1sc2c(c1C)C(c1ccc(Cl)cc1)=N[C@@H](CC(=O)N1CCC(CN3CCN(c4ccc5c(C)nn(C6CCC(=O)NC6=O)c(=O)c5c4)CC3)CC1)c1nnc(C)n1-2` (stereo partly drawn) [ICT-0000982, 3-(7-(4-((1-(2-((S)-4-(4-chlorophenyl)-2,3,9-trimethyl-6H-thieno[3,2-f][1,2,4]triazolo[4,3-a][1,4]diazepine-6-day)acetyl)piperidine-4-il)methyl)piperazine-1-yl)4-methyl-1-oxopthalazine-2(1H)-yl)piperidine-2,6-dione], the DC50 in assay [1], in assay [2] and in assay [4] was less than 0.1 µM in each case. In addition, the IC50 in assay [3], in assay [5] and in assay [6] was less than 0.1 µM throughout.
On to `Cc1sc2c(c1C)C(c1ccc(Cl)cc1)=N[C@@H](CC(=O)N1CCC(CN3CCN(c4cc5c(=O)n(C6CCC(=O)NC6=O)ncc5cc4F)CC3)CC1)c1nnc(C)n1-2` (stereo partly drawn) [ICT-0000972, 3-(7-(4-((1-(2-((S)-4-(4-chlorophenyl)-2,3,9-trimethyl-6H-thieno[3,2-f][1,2,4]triazolo[4,3-a][1,4]diazepine-6-day)acetyl)piperidine-4-il)methyl)piperazine-1-yl)-6-fluoro-1-oxopthalazine-2(1H)-yl)piperidine-2,6-dione], for which the DC50 in assay [1], in assay [2] and in assay [4] was less than 0.1 µM in each case. The concentration for half-maximal inhibition (IC50) in assay [3] is 0.1 to 1 µM; in assay [5] it was less than 0.1 µM; in assay [6] it was less than 0.1 µM.
Take `Cc1sc2c(c1C)C(c1ccc(Cl)cc1)=N[C@@H](CC(=O)N1CCC(CN3CCN(c4cc5cnn(C6CCC(=O)NC6=O)c(=O)c5cc4F)CC3)CC1)c1nnc(C)n1-2` (stereo partly drawn) [ICT-0000971, 3-(6-(4-((1-(2-((S)-4-(4-chlorophenyl)-2,3,9-trimethyl-6H-thieno[3,2-f][1,2,4]triazolo[4,3-a][1,4]diazepine-6-day)acetyl)piperidine-4-il)methyl)piperazine-1-yl)7-fluoro-1-oxopthalazine-2(1H)-yl)piperidine-2,6-dione]: the DC50 in assay [1], in assay [2] and in assay [4] was less than 0.1 µM in each case. The IC50 in assay [3], in assay [5] and in assay [6] was less than 0.1 µM throughout.
With `Cc1sc2c(c1C)C(c1ccc(Cl)cc1)=N[C@@H](CC(=O)N1CC(N3CCN(c4ccc5c(=O)n(C6CCC(=O)NC6=O)nc(C)c5c4)CC3)C1)c1nnc(C)n1-2` (stereo partly drawn) [ICT-0000974, 3-(6-(4-(1-(2-((S)-4-(4-chlorophenyl)-2,3,9-trimethyl-6H-thieno[3,2-f][1,2,4]triazolo[4,3-a][1,4]diazepine-6-yl)acetyl)azetidine-3-il)piperazine-1-yl)-4-methyl-1-oxopthalazine-2(1H)-yl)piperidine-2,6-dione], the DC50 in assay [1], in assay [2] and in assay [4] was less than 0.1 µM each time. Besides, the IC50 in assay [3], in assay [5] and in assay [6] was less than 0.1 µM in each case.
For `Cc1sc2c(c1C)C(c1ccc(Cl)cc1)=N[C@@H](CC(=O)N1CC(N3CCN(c4ccc5c(=O)n(C6CCC(=O)NC6=O)ncc5c4)CC3)C1)c1nnc(C)n1-2` (stereo partly drawn) [ICT-0000973, 3-(6-(4-(1-(2-((S)-4-(4-chlorophenyl)-2,3,9-trimethyl-6H-thieno[3,2-f][1,2,4]triazolo[4,3-a][1,4]diazepine-6-day)acetyl)azetidine-3-il)piperazine-1-yl)-1-oxopthalazine-2(1H)-yl)piperidine-2,6-dione], the DC50 in assay [1], in assay [2] and in assay [4] was less than 0.1 µM in each case. Besides, the IC50 in assay [3] is 0.1 to 1 µM; in assay [5], less than 0.1 µM; in assay [6] it was 0.1 to 1 µM.

For the origin of these results see EP4640686A1, “DEGRADER FOR DEGRADING BRD PROTEIN AND PHARMACEUTICAL COMPOSITION CONTAINING SAME” (Innocure Therapeutics, Inc., priority 2022, dated 2024).
